Measurements: patent US6730792B2, “β3 adrenergic agonists” (Eli Lilly and Company, priority 2000, dated 2004)

Target: T1, human β3 adrenergic receptor (Homo sapiens, UniProt P13945)
T1 construct: expressed in transfected cells; host or cells: DXB-11 Chinese hamster ovary (CHO) cell line, stably transfected (phd expression vector)
Assay: whole cell receptor coupled c-AMP assay, human β3 receptor in CHO cells (EC50, Emax relative to isoproterenol)
Type: cell-based
Details: % intrinsic activity relative to isoproterenol maximal response; average of at least 3 runs; c-AMP in transfected CHO cells
Procedure, shortened: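 Stably transfected DXB-11 CHO cells (20,000/well) were exposed to compound for 20 min at 37 °C in HBSS/HEPES buffer with 1 mM IBMX, pH 7.4. cAMP was measured by SPA. EC50 came from a four-parameter logistic fit, and Emax is the maximal response as a percentage of isoproterenol's.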

T1 sequence (P13945 whole entry): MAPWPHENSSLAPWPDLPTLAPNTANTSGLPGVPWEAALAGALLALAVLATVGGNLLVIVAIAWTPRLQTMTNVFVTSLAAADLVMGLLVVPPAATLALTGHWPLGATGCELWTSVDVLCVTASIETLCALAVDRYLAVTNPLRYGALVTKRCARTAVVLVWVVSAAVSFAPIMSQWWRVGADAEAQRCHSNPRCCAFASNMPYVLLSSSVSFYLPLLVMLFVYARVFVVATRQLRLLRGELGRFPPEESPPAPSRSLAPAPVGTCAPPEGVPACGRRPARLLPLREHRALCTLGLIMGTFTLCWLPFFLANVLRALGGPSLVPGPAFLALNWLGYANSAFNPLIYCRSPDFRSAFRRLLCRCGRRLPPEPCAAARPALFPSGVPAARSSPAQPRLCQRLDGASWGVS

| Emax (%) ± SEM | Compound |
| --- | --- |
| 73.4 ± 4.4% | CC(C)(Cc1ccc(Oc2ncccc2C#N)cc1)NC[C@H](O)COc1c(F)cccc1-c1ccco1.Cl [Example 440] |
| 78.9 ± 2.3% | CC(C)(Cc1ccc(Oc2ncccc2C(N)=O)cc1)NC[C@H](O)COc1ccccc1-c1ccco1.Cl [Example 420] |

Same assay, conditions: Emax ± SEM; average of at least 3 runs except as otherwise indicated; tested as the isolated form listed

| Emax (%) ± SEM | Compound |
| --- | --- |
| 68.8 ± 6.5% | CC(C)(Cc1ccc(Oc2ccc(C#N)cn2)cc1)NC[C@H](O)COc1ccccc1-c1ccoc1.Cl [Example 305] |
| 82.4 ± 4.0% | CC(C)(Cc1ccc(Oc2ncccc2C#N)cc1)NC[C@H](O)COc1ccccc1-c1ccoc1.Cl [Example 306] |

Same assay, conditions: Emax ± standard error of the mean; average of at least 3 runs except where n = 1; compound tested in the isolated form listed

| Emax (%) ± SEM | Compound |
| --- | --- |
| 64.8 ± 6.3% | CC(C)(Cc1ccc(Oc2ccc(C#N)cn2)cc1)NC[C@H](O)COc1ccccc1-c1ccon1.Cl [Example 12] |
| 49.5 ± 3.4% | CC(C)(Cc1ccc(Oc2ccc(S(C)(=O)=O)cc2)cc1)NC[C@H](O)COc1ccccc1-c1nccs1 [Example 130] |
| 70.1 ± 3.3% | CC(C)(Cc1ccc(Oc2ncccc2C#N)cc1)NC[C@H](O)COc1ccccc1-c1nccs1 [Example 52] |
| 49.1 ± 2.9% | CC(C)(Cc1ccc(Oc2ccc(C(N)=O)cn2)cc1)NC[C@H](O)COc1ccccc1-c1ccno1 [Example 18] |
| 54.8 ± 1.7% | CC(C)(Cc1ccc(Oc2ccc(C#N)cn2)cc1)NC[C@H](O)COc1ccccc1-c1cnco1.Cl [Example 13] |
| 22.0 ± 5.3% | CC(C)(Cc1ccc(Oc2ccc(C(N)=O)cn2)cc1)NC[C@H](O)COc1ccccc1N1CCCC1=O [Example 22] |
| 35.5 ± 5.5% | CC(C)(Cc1ccc(Oc2ccc(C(N)=O)cn2)cc1)NC[C@H](O)COc1ccccc1-n1cccn1.Cl [Example 47] |
| 20.8 ± 8.5% | CC(C)(Cc1ccc(Oc2ccc(C(N)=O)cn2)cc1)NC[C@H](O)COc1ccccc1-c1nc2ccccc2s1 [Example 27] |
| 56.1 ± 2.9% | CC(C)(Cc1ccc(Oc2cccc(Cl)c2C#N)cc1)NC[C@H](O)COc1ccccc1-c1cscn1.Cl [Example 245] |
| 54.6 ± 8.2% | CC(C)(Cc1ccc(Oc2cccnc2C#N)cc1)NC[C@H](O)COc1ccccc1-n1cccc1.Cl [Example 268] |
| 45.1 ± 1.5% | CC(C)(Cc1ccc(Oc2ccc(C#N)cc2F)cc1)NC[C@H](O)COc1ccccc1-c1cccs1.O=C(O)C(F)(F)F [Example 187] |
| 73.5 ± 3.2% | CC(C)(Cc1ccc(Oc2ccc(C(F)(F)F)cn2)cc1)NC[C@H](O)COc1ccccc1-c1cccs1.O=C(O)C(F)(F)F [Example 193] |
| 16.9 n = 1% | Cn1nccc1-c1ccccc1OC[C@@H](O)CNC(C)(C)Cc1ccc(Oc2ccc(C(N)=O)cn2)cc1 [Example 14] |
| 62.9 ± 2.2% | CC(C)(Cc1ccc(Oc2ccc(C(N)=O)cn2)cc1)NC[C@H](O)COc1ccccc1-c1nccs1 [Example 17] |

Further lines, the compound ahead of its results:

| Compound | Emax (%) ± SEM |
| --- | --- |
| Cn1ccc(-c2ccccc2OC[C@@H](O)CNC(C)(C)Cc2ccc(Oc3ncccc3C(N)=O)cc2)n1 [Example 15] | 70.9 ± 3.0% |
| CC(C)(Cc1ccc(Oc2ccc(C(N)=O)cn2)cc1)NC[C@H](O)COc1ccccc1N1CCCCC1.Cl.Cl [Example 24] | 17.3 ± 3.2% |
| CC(C)(Cc1ccc(Oc2ccncc2)cc1)NC[C@H](O)COc1ccccc1-c1cccs1.O=C(O)C(F)(F)F [Example 202] | 59.1 ± 6.0% |
| CC(C)(Cc1ccc(Oc2ccc(C#N)nc2)cc1)NC[C@H](O)COc1ccccc1-c1nccs1.O=C(O)C(F)(F)F [Example 145] | 44.6 ± 6.2% |
| CCOC(=O)c1cccnc1Oc1ccc(CC(C)(C)NC[C@H](O)COc2ccccc2-c2ccnn2C)cc1 [Example 105] | <10% |
| CC(C)(Cc1ccc(Oc2ncccn2)cc1)NC[C@H](O)COc1ccccc1-c1nccs1.O=C(O)C(F)(F)F [Example 151] | 73.1 ± 3.8% |
| CC(C)(Cc1ccc(Oc2ncc(C(F)(F)F)cc2Cl)cc1)NC[C@H](O)COc1ccccc1-c1cscn1.Cl [Example 254] | 50.5 ± 0.8% |
| CC(C)(Cc1ccc(Oc2ncccc2C(N)=O)cc1)NC[C@H](O)COc1ccccc1-n1ccnc1.Cl [Example 104] | 36.0 ± 5.0% |
| CC(C)(Cc1ccc(Oc2cnccn2)cc1)NC[C@H](O)COc1ccccc1-c1cccs1.O=C(O)C(F)(F)F [Example 153] | 66.8 ± 5.5% |
| CC(C)(Cc1ccc(Oc2ccc(C(N)=O)cc2)cc1)NC[C@H](O)COc1ccccc1-c1ccno1.O=C(O)C(F)(F)F [Example 125] | 40.3 ± 7.9% |
| CC(C)(Cc1ccc(Oc2nc(Cl)c(Cl)cc2Cl)cc1)NC[C@H](O)COc1ccccc1-c1nccs1.O=C(O)C(F)(F)F [Example 157] | 73.3 ± 6.6% |
| CC(C)(Cc1ccc(Oc2ncccc2C(N)=O)cc1)NC[C@H](O)COc1ccccc1-c1csnn1.O=C(O)C(=O)O [Example 98] | 39.2 ± 4.0% |
| CC(C)(Cc1ccc(Oc2ccc(C(N)=O)cc2Cl)cc1)NC[C@H](O)COc1ccccc1-c1cscn1.Cl [Example 253] | 37.6 ± 2.7% |
| CC(C)(Cc1ccc(Oc2ncc(Cl)cc2Cl)cc1)NC[C@H](O)COc1ccccc1-c1ccno1.O=C(O)C(F)(F)F [Example 174] | 59.3 ± 3.2% |
| CC(C)(Cc1ccc(Oc2ncccc2C(N)=O)cc1)NC[C@H](O)COc1cccc(-c2ccno2)c1 [Example 93] | <10% |
| CC(C)(Cc1ccc(Oc2ncccc2C(N)=O)cc1)NC[C@H](O)COc1ccccc1-c1nnco1 [Example 86] | 64.6 ± 3.3% |
